This note sets out measurements from patent publication US7049396B2, “Synthetic peptides that inhibit leukocyte superoxide anion production and/or attract leukocytes” (priority 1995, dated 2006).

In one assay the test system is Escherichia coli, 25922. Description: MIC/MBC microdilution broth method. The assay is classed as cell-based. The settings on record: Escherichia coli. The method, then: (§1) Plates were incubated at 37° C. for 18 hr. […] Viable bacteria were counted. Tests were repeated on three different days. […] The results were expressed as the mean ± standard deviation. […] S. choleraesuis, ATCC 6962 was used in this experiment. […] Slides were stained with LeukoStat solutions (Fisher, Pittsburgh, Pa.). […] At least 200 neutrophils were examined. […] Tests were repeated on three different days. Results were expressed as the mean±standard deviation.
(Dilution methods test growth across graded concentrations, often in twofold steps.)

For a further assay, the system named is Salmonella typhimurium. The assay can be described thus: MIC/MBC microdilution broth method. The assay is classed as cell-based. The settings on record: Salmonella typhimurium. As to the method: as §1
In a further assay the test system is Staphylococcus aureus. The assay can be described thus: MIC/MBC microdilution broth method. The settings on record: Staphylococcus aureus. The assay is classed as cell-based. As to the method: as §1
The next assay relates to Streptococcus suis. Description: MIC/MBC microdilution broth method. The assay is classed as cell-based. To be noted: Streptococcus suis. The method, then: as §1
The subject of assay [1] is whole-cell NADPH oxidase activity of porcine peripheral blood neutrophils. Description: Whole-cell O2- production, ferricytochrome c reduction. The assay is classed as cell-based. The method, then: Regulation of neutrophil O2^− production by PR-26 and PR-39. • (i) O2^− production assays. Whole-cell O2^− production by por-cine peripheral blood neutrophils was determined by the superoxide dismutase-inhibitable reduction of ferricytochrome c as previously described (Shi et al., 1994a). Cell-free O2^− production was measured as previously described (Leto et al., 1991) using 96-well plates and a Molecular Devices Thermomax microplate reader (Menlo Park, Calif.). Reactions (100 μl) contained 10^6 cell equivalents of human neutrophil cytosol and 5×10^5 cell equivalents of deoxycholate-solubilized membranes prepared from human peripheral blood neutrophils. Reaction mixtures contained 50 mM potassium phosphate (pH 7), 0.2 mM acetylated cytochrome c, 4 mM MgCl2, 1 mM EGTA, 10 μM FAD, 1 μM GTP-γS, and 200 μM NADPH. The reactions were initiated by addition of 40 μM arachidonic acid. Control reactions contained 5 μg of superoxide dismutase. Superoxide anion generation was calculated based on superoxide dismutase-inhibitable changes in cytochrome c absorbance observed at 551 nm. The reactions were followed for 20 min. after addition of arachidonic acid, with absorbance readings taken at 1-min. intervals. Maximum rates of superoxide generation were calculated from a linear least squares fit of 10 consecutive 1-min. data points. Determinations were based on reactions performed in duplicate. • (ii) Binding assays. Neutrophils were disrupted by sonication, and unbroken cells, debris, and granules were removed by centrifuigation (13,000×g for 60 min.). Cytosol fractions were prepared by centrifugation (100,000 g for 45 min.) of the supernatants to remove residual membranes. Cytosolic proteins (15 μg in reducing buffer) were separated on a 7.5% SDS PAGE gel, transferred to PVDF membranes, and probed with biotinylated PR-39 (0.3 μM) for 2 hr. Binding between PR-39 and cytosolic proteins were visualized by a chemiluminescent streptavidin alkaline phosphatase system using an Epson scanner (Torrance, Calif.) and the NIH Image program. PR-39 was labeled with biotin hydrazide at the carboxy-terminus (Pierce Chemical Co., Rockford, Ill.) and purified by gel filtration chromatography.

The target of assay [2] is 47 kDa neutrophil cytosol protein (Homo sapiens, UniProt P14598). Description: Ligand-blot binding assay with biotinylated PR-39, human cytosol. The settings on record: biotinylated PR-39 probe.
47 kDa neutrophil cytosol protein, sequence (P14598 whole entry): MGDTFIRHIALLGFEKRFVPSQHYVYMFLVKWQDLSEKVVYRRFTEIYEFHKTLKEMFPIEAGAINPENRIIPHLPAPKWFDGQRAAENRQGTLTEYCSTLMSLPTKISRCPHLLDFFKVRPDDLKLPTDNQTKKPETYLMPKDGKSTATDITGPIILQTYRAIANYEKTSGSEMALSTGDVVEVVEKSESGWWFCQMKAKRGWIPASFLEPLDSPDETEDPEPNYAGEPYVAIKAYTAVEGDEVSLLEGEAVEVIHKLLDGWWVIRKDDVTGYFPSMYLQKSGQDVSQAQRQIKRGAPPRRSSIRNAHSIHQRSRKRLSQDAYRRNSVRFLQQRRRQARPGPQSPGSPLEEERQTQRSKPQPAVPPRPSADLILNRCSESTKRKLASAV
For assay [3], the target named is T1, interaction between GST-p47^phox and recombinant p22^phox (Homo sapiens, UniProt P14598).
T1 construct: (GST)-p47^phox-SH3 (residues 151–284) fusion protein; made in house; host or cells: p22phox fragment: baculovirus-infected cells (used as lysate)
T1 sequence (P14598 151-284): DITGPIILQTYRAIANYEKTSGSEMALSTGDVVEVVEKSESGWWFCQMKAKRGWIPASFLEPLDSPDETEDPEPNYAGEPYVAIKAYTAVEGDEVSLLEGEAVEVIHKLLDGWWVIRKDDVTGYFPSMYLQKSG
Description: Solution binding assay GST-p47phox-SH3 / recombinant p22phox. The settings on record: concentrations close to IC50's of the cell-free oxidase assay. As to the method: Methods for production of the glutathione S-transferase (GST)-p47^phox-SH3 (residues 151–284) fusion protein have been previously described (Leto et al., 1994). For solution binding assays, lysates of recombinant p22^phox protein (residues 127–195) from baculovirus-infected cells (2.5×10^4 cell equivalents per assay) were mixed with peptides and incubated for 1 hr. at 20° C. with 100 μl of GST-p47^phox bound to glutathione-Sepharose beads (15% suspension). Bound proteins were washed three times in 15 volumes of ice-cold 100 mM KCl/3 mM NaCl/3.5 mM MgCl2/0.15 mM phenylmethanesulfonyl fluoride/10 mM Pipes (pH 7.5), eluted with 1% SDS, and analyzed by SDS-PAGE followed by immunoblotting with mouse anti-p22^phox antibody (mAb 449; A. Verhoeven, Central Laboratories of the Netherlands Red Cross). Controls included blotting of recombinant p22^phox lysate (5×10^3 cell equivalents) alone (p22) and bound complexes detected without competing PR peptides (−).

Values after ≈ are worked out from the molar mass of the structure shown. Where a SMILES comes first, the peptide text is derived from it.

Usually MBC stands for the lowest tested concentration that kills the bacteria rather than only halting them. In general, MIC refers to the lowest concentration found to suppress growth. Read a high MIC as a less susceptible organism. On to `CC[C@H](C)[C@H](NC(=O)[C@H](CCCNC(=N)N)NC(=O)[C@@H]1CCCN1C(=O)[C@@H]1CCCN1C(=O)[C@H](CC(C)C)NC(=O)[C@H](CCCNC(=N)N)NC(=O)[C@@H]1CCCN1C(=O)[C@@H]1CCCN1C(=O)[C@H](Cc1ccccc1)NC(=O)[C@H](Cc1ccccc1)NC(=O)[C@@H]1CCCN1C(=O)[C@@H]1CCCN1C(=O)[C@@H]1CCCN1C(=O)[C@H](CCCNC(=N)N)NC(=O)[C@@H]1CCCN1C(=O)[C@H](CCCNC(=N)N)NC(=O)[C@@H]1CCCN1C(=O)[C@H](CC(C)C)NC(=O)[C@H](Cc1ccc(O)cc1)NC(=O)[C@@H]1CCCN1C(=O)[C@@H]1CCCN1C(=O)[C@H](CCCNC(=N)N)NC(=O)[C@@H]1CCCN1C(=O)[C@H](CCCNC(=N)N)NC(=O)[C@H](CCCNC(=N)N)NC(=O)[C@@H](N)CCCNC(=N)N)C(=O)N1CCC[C@H]1C(=O)N1CCC[C@H]1C(=O)NCC(=O)N[C@@H](Cc1ccccc1)C(=O)N1CCC[C@H]1C(=O)N1CCC[C@H]1C(=O)N[C@@H](CCCNC(=N)N)C(=O)N[C@@H](Cc1ccccc1)C(=O)N1CCC[C@H]1C(=O)N1CCC[C@H]1C(=O)N[C@@H](CCCNC(=N)N)C(=O)N[C@@H](Cc1ccccc1)C(=O)N1CCC[C@H]1C(=O)O` [PR-39] (H-RRRPRPPYLPRPRPPPFFPPRLPPRIPPGFPPRFPPRFP-OH; N-terminus and C-terminus assumed), for which the MBC was 8 µM (≈ 37.8 µg/mL) against Escherichia coli, 25922; 4 µM (≈ 18.9 µg/mL) in the assay on Salmonella typhimurium; over 64 µM in the assay on Streptococcus suis. Besides, the MIC was 4 µM (≈ 18.9 µg/mL) against Escherichia coli, 25922; 4 µM (≈ 18.9 µg/mL) with Salmonella typhimurium; over 250 µM against Staphylococcus aureus; over 64 µM in the assay on Streptococcus suis. For the same compound, the “O2- generation by neutrophils” value in assay [1] (5 μM, incubated at least 45 min. before PMA stimulation) is recorded as “significant reduction”; in assay [1] (20 μM added at the same time as PMA) it was “did not affect”. This compound also displayed an oxidase inhibition in assay [1] (5 μM, longer pre-incubation periods before PMA) of about 70%. Also, in assay [2], the “binding to 47 kDa cytosolic protein” value was “bound”. For the same compound, in assay [3], the “blocking of interaction between GST-p47phox and recombinant p22phox” value is “effectively blocked”.
